Results reported in patent publication US20020071872A1, “Laxative composition” (priority 1999, published 2002).

What was measured:
large intestinal transit = settings: 50 mg/kg bisacodyl given orally, rat; cited from earlier work
small bowel transit = test: Small bowel (small intestinal) transit of a charcoal marker in rats; assay type: in vivo, rat
Method: A study was performed to characterize and compare the effects of bisacodyl, simethicone and combinations of bisacodyl and simethicone on small bowel transit time. Small intestinal transit time was studied as a surrogate for […] in the rat. Leng-Peschlow, E., “Effect of Sennosides A+B and Bisacodyl on rat large intestine”, Pharmacology, vol. 38 (1989), 310-318 (1989). […] The prokinetic efficacy of bisacodyl in the small intestine may differ from that observed in the large intestine by Leng-Psechlow. For the small intestinal transit model a sub-therapeutic dose of 25mg/kg bisacodyl was chosen. Rats were dosed with a suspension of powdered charcoal, which served as a non-absorbable marker. The rats were also dosed with bisacodyl USP 23 (ZetaPharm, Inc.) and simethicone supplied as […]® drops and activated charcoal (Sigma Chemical). Six treatments were compared a control; simethicone 15 mg/kg; bisacodyl 25 mg/kg; and bisacodyl 25 mg/kg and simethicone at 5, 10 or 15 mg/kilogram. Dosing preparations of charcoal suspension (10 weight percent) were made freshly each day by adding dry powder to 0.5 percent methylcellulose in water and stirring. Dosing preparations were made each day by adding the appropriate quantity of bisacodyl and/or simethicone drops to the charcoal suspension. All treatments were administered orally, using the dose volume of 10 milliliters per kilogram. Sixty minutes after dosing, the rats were sacrificed and small bowel transit rate was determined by identifying the charcoal marker and measuring its distance from the pylorus.

fecal output = settings: 10-100 mg/kg bisacodyl given orally, rat; cited from earlier work

For `CC(=O)Oc1ccc(C(c2ccc(OC(C)=O)cc2)c2ccccn2)cc1` [Bisacodyl, bisacodyl], the large intestinal transit (large intestinal transit) is listed as “significantly stimulated”, the Mean % traveled (small bowel transit; bisacodyl 25 mg/kg oral, rat, charcoal marker, 60 min after dosing) is listed as 80.7% and the “% Increase” value (small bowel transit; compared to vehicle control, bisacodyl 25 mg/kg oral, rat) is listed as 1%. The “small bowel transit compared with control” value (small bowel transit; rats treated with simethicone alone or bisacodyl alone) was “not different from control” and the fecal output (fecal output) was “increased fecal output”.
